Laboratory results: US20200261485A1, “COMPOSITIONS COMPRISING 3'-O-GLUCURONIDE EPICATECHIN AND METHODS OF MAKING AND USING SUCH COMPOSITIONS” (NESTEC S.A., priority 2015, published 2020)
“Also recorded” adds a separate entry of the source. Blank lines part the entries; values can stand above or below the compound they belong to.

Legend:
h-TRPA1 = biological target: T1, h-TRPA1 (Homo sapiens, UniProt O75762); test: Calcium imaging of activation of CHO cells expressing h-TRPA1; format: cell-based; settings: for Activity vs hTRPA1: CHO cells expressing h-TRPA1; for TRPA1 agonism (result in words): activation of CHO cells expressing h-TRPA1, FIGS. 4, 6, 7
T1 construct: expressed in transfected cells; host or cells: CHO cells
T1 sequence (O75762 whole entry): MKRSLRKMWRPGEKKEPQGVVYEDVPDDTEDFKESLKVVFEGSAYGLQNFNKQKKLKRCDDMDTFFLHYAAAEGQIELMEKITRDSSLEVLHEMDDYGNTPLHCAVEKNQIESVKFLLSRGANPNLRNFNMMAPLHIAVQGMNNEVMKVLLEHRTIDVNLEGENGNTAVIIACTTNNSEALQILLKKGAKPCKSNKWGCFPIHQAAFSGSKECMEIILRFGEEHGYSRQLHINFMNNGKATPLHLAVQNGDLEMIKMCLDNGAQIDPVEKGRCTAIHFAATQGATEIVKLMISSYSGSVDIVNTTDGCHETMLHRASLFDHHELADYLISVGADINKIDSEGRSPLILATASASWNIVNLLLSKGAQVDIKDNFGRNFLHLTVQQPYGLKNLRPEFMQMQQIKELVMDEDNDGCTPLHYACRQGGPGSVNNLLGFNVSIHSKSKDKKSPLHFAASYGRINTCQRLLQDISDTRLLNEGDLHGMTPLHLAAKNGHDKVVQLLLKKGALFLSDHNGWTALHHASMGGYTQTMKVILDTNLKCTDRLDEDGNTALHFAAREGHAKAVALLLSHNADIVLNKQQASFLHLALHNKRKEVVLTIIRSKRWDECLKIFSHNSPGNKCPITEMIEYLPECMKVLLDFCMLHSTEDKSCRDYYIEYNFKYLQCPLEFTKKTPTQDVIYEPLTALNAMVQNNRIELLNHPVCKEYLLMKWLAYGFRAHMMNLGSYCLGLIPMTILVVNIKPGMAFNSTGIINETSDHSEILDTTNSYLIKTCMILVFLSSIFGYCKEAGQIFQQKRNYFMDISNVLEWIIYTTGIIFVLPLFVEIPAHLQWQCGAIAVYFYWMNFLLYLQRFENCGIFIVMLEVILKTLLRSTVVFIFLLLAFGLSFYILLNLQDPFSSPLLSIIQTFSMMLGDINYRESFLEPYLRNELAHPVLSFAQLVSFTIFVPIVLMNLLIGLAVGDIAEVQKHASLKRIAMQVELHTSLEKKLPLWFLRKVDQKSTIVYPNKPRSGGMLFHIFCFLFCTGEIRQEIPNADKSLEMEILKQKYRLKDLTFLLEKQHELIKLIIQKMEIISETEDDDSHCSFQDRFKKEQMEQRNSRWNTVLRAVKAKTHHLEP
Procedure: Specifically, the activation of CHO cells expressing h-TRPA1 was tested according to the calcium imaging method described in Riera et al. (Riera, C. E., Vogel, H., Simon, S. A., Damak, S., & le Coutre, J. Sensory attributes of complex tasting divalent salts are mediated by TRPM5 and TRPV1 channels. J. Neurosci. 29, 2654-2662 (2009)).

[1] = tested on: endothelial nitric oxide synthase; test: Phosphorylation of endothelial nitric oxide synthase (western blot) in isolated aortic rat rings; format: cell-based; set-up: dose or concentration left out as unconfirmed; settings: isolated Wistar rat aortic rings, 1 h incubation, FIG. 12
Procedure: Furthermore, comparative experiments were conducted on the expression of endothelial nitric oxide synthase in isolated aortic rat rings.
Thoracic aortas were obtained from male adults Wistar rats after euthanasia. Each aorta was carefully dissected and harvested cleaned of excess tissue and cut into three equal segments, approximately 7 mm long. All aortic rings were pre-incubated for 30 min in Krebs solution (20 mM Hepes buffer, pH 7.4, containing 119 mM NaCl, 4.7 mM KCl, 1 mM MgSO4, 0.4 mM NaH2PO4, 0.15 mM Na2HPO4, 5 mM NaHCO3, 1.25 mM CaCl2, 5.5 mM glucose) aerated with 95% O2 and 5% CO2 at 37° C. and then incubated with vehicle (DMSO 1%) or the different metabolites for 1 h. Metabolites were first dissolved in DMSO 1% and tested in a final concentration […]. At the end of the incubation period aortic rings were frozen at −70° C. until the homogenate preparation. Homogenates for western blot and western blot determinations were carried out by the regular procedures and phosphorylation level of endothelial nitric oxide synthase was evaluated.

[2] = concentration (max) tested 100 mM
[3] = concentration (max) tested 3 mM

Compound: O=C(O)[C@H]1O[C@@H](Oc2ccc([C@H]3Oc4cc(O)cc(O)c4C[C@H]3O)cc2O)[C@H](O)[C@@H](O)[C@@H]1O [4′-O-glucuronide epicatechin]
- eNOS phosphorylation relative to control and chemically similar epicatechins [1]: increased eNOS phosphorylation

Compound: Hesperetin-4-O-Glucuronide
- Activity vs hTRPA1 (h-TRPA1; [3]): Inactive

Compound: COc1ccc(C2CC(=O)c3c(O)cc(O)cc3O2)cc1O[C@@H]1O[C@H](C(=O)O)[C@@H](O)[C@H](O)[C@H]1O (stereo partly drawn) [Hesperetin-3-O-Glucuronide]
- Activity vs hTRPA1 (h-TRPA1; [3]): Inactive

Compound: Hesperetin-7-3-O-Glucuronide
- Activity vs hTRPA1 (h-TRPA1; [3]): Inactive

Compound: O=C(O)[C@H]1O[C@@H](Oc2cc([C@H]3Oc4cc(O)cc(O)c4C[C@H]3O)ccc2O)[C@H](O)[C@@H](O)[C@@H]1O [3′-O-glucuronide epicatechin]
- Activity vs hTRPA1 (h-TRPA1; concentration (max) tested 133 mM): Active
- TRPA1 agonism (result in words) (h-TRPA1): is a TRPA1 agonist; also recorded: agonist of the cation channel of TRPA1
- EC50 (h-TRPA1; activation of hTRPA1 in CHO cells): ~80 mM
- Concentration dependence of activation of CHO cells expressing h-TRPA1 (h-TRPA1; different concentrations, dose-response curve, FIGS. 10 and 11): activation occurs in a concentration-dependent manner
- eNOS phosphorylation relative to control and chemically similar epicatechins [1]: increased eNOS phosphorylation

More lines, main results first:

- Activity vs hTRPA1 (h-TRPA1; [2]): Inactive
- TRPA1 agonism (result in words) (h-TRPA1; listed as 3′-methyl epicatechin): not TRPA1 agonists
Compound: COc1cc([C@H]2Oc3cc(O)cc(O)c3C[C@H]2O)ccc1O [3′-O-methyl epicatechin]
- TRPA1 agonism (result in words) (h-TRPA1): is not a TRPA1 agonist; also recorded: not TRPA1 agonists

- Activity vs hTRPA1 (h-TRPA1; [2]): Inactive
Compound: O=S(=O)(O)Oc1cc([C@H]2Oc3cc(O)cc(O)c3C[C@H]2O)ccc1O [3′-O-sulfate epicatechin]
- TRPA1 agonism (result in words) (h-TRPA1): is not a TRPA1 agonist; also recorded: not TRPA1 agonists

- Activity vs hTRPA1 (h-TRPA1; [2]): Inactive
Compound: COc1cc(C2Oc3cc(OS(=O)(=O)O)cc(O)c3CC2O)ccc1O (stereo not drawn) [3′-methyl-7-sulfate-EC]

- Activity vs hTRPA1 (h-TRPA1; [2]): Inactive
Compound: O=S(=O)(O)Oc1ccc(C2Oc3cc(O)cc(O)c3CC2O)cc1O (stereo not drawn) [4′-sulfate-EC]

- Blockage of the activation of hTRPA1 by 3′-O-glucuronide epicatechin (h-TRPA1; selective hTRPA1 antagonist added, FIG. 9): blocked the activation of hTRPA1
Compound: CC(C)c1ccc(NC(=O)Cn2cnc3c2c(=O)n(C)c(=O)n3C)cc1 [HC030031]

- Activity vs hTRPA1 (h-TRPA1; [2]): Inactive
Compound: COc1ccc(C2Oc3cc(O)cc(O)c3CC2O)cc1O (stereo not drawn) [4′-methyl-EC]
